In brackets after ≈: the same amount, converted by molar mass. Residues, ends and D or L forms follow the SMILES beside them.
How the values were obtained:
Type in all cases: cell-based
[1] = system: S. aureus CMCC26003
Method: (§1) Standard strains included S. aureus ATCC33592, S. aureus CICC25138, and Salmonella enterica ATCC14028, which were purchased from the China Center of Industrial Culture Collection (CICC). Standard strains including E.coli CMCC44102, Salmonella enterica CMCC50071, and S. aureus CMCC26003 were purchased from the National Center for Medical Culture Collections (CMCC). […] All experiments using the above strains were carried out in a BSL‐2 laboratory. The clinical laboratory of Qilu Hospital detected bacterial resistance to various antibiotics. All strains were streaked on Nutrient Broth (NB) agar medium and incubated overnight at 37°C.
(§2) The antimicrobial activity of the peptides was examined in sterile 96‐well plates using the broth microdilution according to the CLSI standard. The colonies were suspended in saline solution, the turbidity was adjusted to McFarland 0.5 to reach a bacterial concentration of 10^8 CFU/mL, and again diluted 100 times for the inhibition test. Then, 50 µL of bacterial suspension at 1 × 10^6 CFU/mL was incubated with the same volume of different concentrations of peptide solution [serial twofold dilutions in Mueller–Hinton Broth (Hopebio)]. […] All experiments were performed with three independent replicates.

[2] = system: S. aureus CICC25138
Method: as §1, §2

[3] = system: P. aeruginosa 116
Method: as §1, §2

[4] = system: E.coli CMCC44102
Method: as §1, §2

[5] = system: E. faecium 21
Method: as §1, §2

[6] = system: P. aeruginosa 119
Method: as §1, §2

[7] = system: K. pneumoniae 7713
Method: as §1, §2

[8] = system: E.coli 110
Method: as §1, §2

[9] = system: E.coli 208
Method: as §1, §2

[10] = system: S. aureus 129
Method: as §1, §2

[11] = system: S. aureus 103
Method: as §1, §2

[12] = system: E. faecium 1042
Method: as §1, §2

[13] = system: P. aeruginosa 112
Method: as §1, §2

[14] = system: S. aureus ATCC33592
Method: as §1, §2

[15] = system: S. aureus CMCC26003; test: Drug resistance assay, serial passaging; conditions: sub-MIC (1/2 × MIC), n = 3; for passages after which S. aureus developed resistance: passaged every 24 h, resistance = greater than fourfold MIC increase
Method: For comparison, the development of resistance to the clinically relevant antibiotics clindamycin (Macklin) and vancomycin (Macklin) was determined. The evolution of resistance by S. aureus CMCC26003 to antibiotics and the peptide was monitored for 20 days of serial passaging in liquid NB. Cells were passaged every 24 h. Briefly, 1 mL of bacterial suspension (1 × 10^6 CFU/mL) was incubated with antibiotics or peptide solution at half the minimal inhibitory concentration at 37°C, 200 rpm. After each incubation period, a new inoculum of 10^6 cells was prepared for inoculation of the following passage containing fresh medium and increased doses of the antimicrobial agent. During the 20 days of serial passaging, the minimum inhibitory concentration of antibiotics or peptides to each generation of cells was determined. The MIC determination method was as previously described. The development of bacterial resistance was defined as a greater than fourfold increase in MICs compared to the initial MICs.

Row | SMILES | MIC (μg/mL) S. aureus CMCC26003 [1] | MIC (μg/mL) S. aureus CICC25138 [2] | MIC (μg/mL) P. aeruginosa 116 [3] | MIC (μg/mL) E.coli CMCC44102 [4] | MIC (μg/mL) E. faecium 21 [5] | MIC (μg/mL) P. aeruginosa 119 [6] | MIC (μg/mL) K. pneumoniae 7713 [7] | MIC (μg/mL) E.coli 110 [8] | MIC (μg/mL) E.coli 208 [9] | MIC (μg/mL) S. aureus 129 [10] | MIC (μg/mL) S. aureus 103 [11] | MIC (μg/mL) E. faecium 1042 [12] | MIC (μg/mL) P. aeruginosa 112 [13] | MIC (μg/mL) S. aureus ATCC33592 [14] | passages after which S. aureus developed resistance [15] | factor of decrease in susceptibility by the 20th passage ([15]; 20 passages)
1 | CC(C)[C@H](N)C(=O)N[C@@H](CCCCN)C(=O)N[C@H](C(=O)N[C@@H](Cc1ccccc1)C(=O)N[C@@H](CCCNC(=N)N)C(=O)N[C@@H](Cc1ccccc1)C(=O)N[C@@H](Cc1ccc(O)cc1)C(=O)N[C@@H](Cc1c[nH]c2ccccc12)C(=O)N[C@@H](CCCCN)C(=O)N[C@@H](CCCNC(=N)N)C(=O)N[C@@H](CCCCN)C(=O)N[C@@H](CCC(N)=O)C(=O)N[C@@H](CCCNC(=N)N)C(=O)N[C@@H](Cc1ccccc1)C(N)=O)C(C)C [QLX-3DV-12] (H-VKVFRFYWKRKQRF-NH2) | 2 µg/mL (≈ 1.01 µM) | 32 µg/mL (≈ 16.1 µM) | 8 µg/mL (≈ 4.03 µM) | 8 µg/mL (≈ 4.03 µM) | 4 µg/mL (≈ 2.01 µM) | 32 µg/mL (≈ 16.1 µM) | 16 µg/mL (≈ 8.05 µM) | 4 µg/mL (≈ 2.01 µM) | 8 µg/mL (≈ 4.03 µM) | 16 µg/mL (≈ 8.05 µM) | 16 µg/mL (≈ 8.05 µM) | 2 µg/mL (≈ 1.01 µM) | 2 µg/mL (≈ 1.01 µM) | 32 µg/mL (≈ 16.1 µM) | – | –
2 | CC(C)C[C@H](NC(=O)[C@H](CC(C)C)NC(=O)[C@H](Cc1ccccc1)NC(=O)[C@H](CCCNC(=N)N)NC(=O)[C@H](CCCNC(=N)N)NC(=O)[C@H](CCCNC(=N)N)NC(=O)[C@H](CC(C)C)NC(=O)[C@H](CC(C)C)NC(=O)[C@H](CCCNC(=N)N)NC(=O)[C@H](CCCNC(=N)N)NC(=O)[C@H](CCC(N)=O)NC(=O)[C@H](Cc1c[nH]c2ccccc12)NC(=O)[C@@H](NC(=O)[C@H](CC(C)C)NC(=O)[C@H](CCCNC(=N)N)NC(=O)[C@H](Cc1ccc(O)cc1)NC(=O)[C@@H](N)CCC(N)=O)C(C)C)C(=O)N[C@@H](CCCCN)C(=O)N[C@@H](C)C(N)=O [QLX-3DV-13] (H-QYRLVWQRRLLRRRFLLKA-NH2) | 4 µg/mL (≈ 1.56 µM) | 32 µg/mL (≈ 12.4 µM) | 32 µg/mL (≈ 12.4 µM) | 4 µg/mL (≈ 1.56 µM) | 4 µg/mL (≈ 1.56 µM) | 16 µg/mL (≈ 6.22 µM) | 64 µg/mL (≈ 24.9 µM) | 8 µg/mL (≈ 3.11 µM) | 16 µg/mL (≈ 6.22 µM) | 16 µg/mL (≈ 6.22 µM) | 16 µg/mL (≈ 6.22 µM) | 2 µg/mL (≈ 0.778 µM) | 2 µg/mL (≈ 0.778 µM) | 64 µg/mL (≈ 24.9 µM) | – | –
3 | CC[C@H](C)[C@H](NC(=O)[C@@H](NC(=O)[C@@H](N)CCCCN)C(C)C)C(=O)N[C@@H](CC(N)=O)C(=O)N[C@@H](Cc1ccc(O)cc1)C(=O)N[C@@H](CCCCN)C(=O)N[C@@H](CC(C)C)C(=O)N[C@@H](CCCNC(=N)N)C(=O)N[C@@H](Cc1ccccc1)C(=O)N[C@@H](Cc1ccccc1)C(=O)N[C@@H](Cc1c[nH]c2ccccc12)C(=O)N[C@@H](C)C(=O)N1CCC[C@H]1C(=O)N[C@@H](Cc1c[nH]c2ccccc12)C(=O)N[C@@H](Cc1ccccc1)C(=O)N[C@@H](CCCCN)C(=O)N[C@@H](CCCCN)C(=O)N[C@@H](CC(C)C)C(N)=O [QLX-3DV-15] (H-KVINYKLRFFWAPWFKKL-NH2) | 4 µg/mL (≈ 1.68 µM) | 16 µg/mL (≈ 6.71 µM) | 32 µg/mL (≈ 13.4 µM) | 8 µg/mL (≈ 3.36 µM) | 4 µg/mL (≈ 1.68 µM) | 64 µg/mL (≈ 26.8 µM) | 64 µg/mL (≈ 26.8 µM) | 8 µg/mL (≈ 3.36 µM) | 4 µg/mL (≈ 1.68 µM) | 8 µg/mL (≈ 3.36 µM) | 16 µg/mL (≈ 6.71 µM) | 4 µg/mL (≈ 1.68 µM) | 4 µg/mL (≈ 1.68 µM) | 16 µg/mL (≈ 6.71 µM) | – | –
4 | CC[C@H](C)[C@H](NC(=O)[C@H](CC(C)C)NC(=O)[C@H](C)NC(=O)[C@H](CCCNC(=N)N)NC(=O)[C@@H](N)CCCNC(=N)N)C(=O)N[C@@H](Cc1ccc(O)cc1)C(=O)N[C@@H](CC(N)=O)C(=O)N[C@@H](CC(C)C)C(=O)N[C@H](C(=O)N[C@@H](CCCCN)C(=O)N[C@@H](CCCCN)C(=O)N[C@@H](Cc1c[nH]c2ccccc12)C(=O)N[C@@H](C)C(=O)N[C@@H](Cc1ccc(O)cc1)C(=O)N[C@@H](CO)C(=O)N[C@@H](Cc1ccc(O)cc1)C(=O)N[C@@H](CO)C(=O)N[C@@H](C)C(=O)N[C@H](C(N)=O)[C@@H](C)O)C(C)C [QLX-3DV-16] (H-RRALIYNLVKKWAYSYSAT-NH2) | 4 µg/mL (≈ 1.74 µM) | 128 µg/mL (≈ 55.6 µM) | 16 µg/mL (≈ 6.95 µM) | 4 µg/mL (≈ 1.74 µM) | 8 µg/mL (≈ 3.47 µM) | 128 µg/mL (≈ 55.6 µM) | 16 µg/mL (≈ 6.95 µM) | 8 µg/mL (≈ 3.47 µM) | 16 µg/mL (≈ 6.95 µM) | 128 µg/mL (≈ 55.6 µM) | 64 µg/mL (≈ 27.8 µM) | 16 µg/mL (≈ 6.95 µM) | 16 µg/mL (≈ 6.95 µM) | 128 µg/mL (≈ 55.6 µM) | – | –
5 | CCC[C@@H]1C[C@@H](C(=O)N[C@@H]([C@H]2O[C@H](SC)[C@H](O)[C@@H](O)[C@H]2O)[C@H](C)Cl)N(C)C1 [clindamycin] | – | – | – | – | – | – | – | – | – | – | – | – | – | – | 15 passages | –
6 | CN[C@H](CC(C)C)C(=O)N[C@H]1C(=O)N[C@@H](CC(N)=O)C(=O)N[C@H]2C(=O)N[C@H]3C(=O)N[C@H](C(=O)N[C@H](C(=O)O)c4cc(O)cc(O)c4-c4cc3ccc4O)[C@H](O)c3ccc(c(Cl)c3)Oc3cc2cc(c3O[C@@H]2O[C@H](CO)[C@@H](O)[C@H](O)[C@H]2O[C@H]2C[C@](C)(N)[C@H](O)[C@H](C)O2)Oc2ccc(cc2Cl)[C@H]1O [vancomycin] | – | – | – | – | – | – | – | – | – | – | – | – | – | – | 18 passages | 64

Reference: paper PMC13185819, “De Novo Multi‐Mechanism Antimicrobial Peptide Design via Multimodal Deep Learning” (Advanced Science, 2026)
